Results: patent US20230399608A1, “PROCESS FOR ESTABLISHING A HUMAN TESTICULAR TISSUE CULTURE SYSTEM” (PATERNA BIOSCIENCES INC., priority 2021, published 2023)

B1: rh ADAM10: ligand of CADM1/TSPAN14/TSPAN15/TSPAN12 (protein, UniProt O14672 214-748, looked up)
Disintegrin and …: TTSAEKNTCQLYIQTDHLFFKYYGTREAVIAQISSHVKAIDTIYQTTDFSGIRNISFMVKRIRINTTADEKDPTNPFRFPNIGVEKFLELNSEQNHDDYCLAYVFTDRDFDDGVLGLAWVGAPSGSSGGICEKSKLYSDGKKKSLNTGIITVQNYGSHVPPKVSHITFAHEVGHNFGSPHDSGTECTPGESKNLGQKENGNYIMYARATSGDKLNNNKFSLCSIRNISQVLEKKRNNCFVESGQPICGNGMVEQGEECDCGYSDQCKDECCFDANQPEGRKCKLKPGKQCSPSQGPCCTAQCAFKSKSEKCRDDSDCAREGICNGFTALCPASDPKPNFTDCNRHTQVCINGQCAGSICEKYGLEECTCASSDGKDDKELCHVCCMKKMDPSTCASTGSVQWSRHFSGRTITLQPGSPCNDFRGYCDVFMRCRLVDADGPLARLKKAIFSPELYENIAEWIVAHWWAVLLMGIALIMLMAGFIKICSVHTPSSNPKLPPPKPLPGTLKRRRPPQPIQQPQRQRPRESYQMGHMRR
B2: GDNF: recombinant human glial cell line-derived neurotrophic factor (protein, UniProt P39905 78-211, looked up)
Glial cell line-derived …: SPDKQMAVLPRRERNRQAAAANPENSRGKGRRGQRGKNRGCVLTAIHLNVTDLGLGYETKEELIFRYCSGSCDAAETTYDKILKNLSRNRRLVSDKVGQACCRPIAFDDDLSFLDDNLVYHILRKHSAKRCGCI
B3: rh MIF: ligand of CXCR4/CD74 (protein, UniProt P14174 2-115, looked up)
Macrophage migration …: PMFIVNTNVPRASVPDGFLSELTQQLAQATGKPPQYIAVHVVPDQLMAFGGSSEPCALCSLHSIGKIGGAQNRSYSKLLCGLLAERLRISPDRVYINYYDMNAANVGWNNSTFA

How the values were obtained:
[1] = tested on: testicular tissue comprising tubules and germ cells; test: Human testicular tissue culture: morphology and germ cell proliferation (EdU/DDX4); type: cell-based
From the text: Tissue preparation: Whole testes are removed from cadaveric organ donors by DonorConnect staff, which are picked up by Utah team and transported to research lab on ice. Testicular tissues are cut by 3-5 mm by dimeter in size using surgical scissors and tweezers.
Culture media preparation: the base media is αMEM+10% KSR. We first tested various small molecular inhibitors/ligands with different concentrations in the base media to culture testicular tissues.
Tissue culture: Place three pieces of testicular tissue into one well of a 6-well plate with 2 ml of media in each well. The tissue should be fully immersed in media. Place the plate at 34° C. in 5% CO2 in an incubator with culture media changed every other day.
Morphology examination: Measure the sizes of the cultured testicular tissues at different time points, including Day 1, Day 7, Day 14, and Day 21. And then fix the sample for H&E staining.
Germ cell proliferation examination: Add Edu (2 ul into each well) at different time points at Day 0, Day 6, Day 13, Day 20. Harvest the tissue 24 hours later for the germ cell proliferation test. Samples are washed three times by PBS and digested to isolated tubules by collagenase type IV at 37° C. Then wash 3 times by PBS to terminate the digestion and perform whole-mount staining of the tubules with Edu and DDX4/UTF1/SYCP3.

[2] = tested on: proliferating germ cells in cultured testicular tissue; test: Inhibitor screen in cultured testicular tissue: EdU+ cells per unit area relative to best prior condition; type: cell-based, human; settings: for EdU+/area (um2) to condition 2: ratio of EdU+ cells per unit area in test condition to condition 2, inhibitor at concentration listed in Table 12
From the text: In this study, the HIF-1a, apoptosis, inflammation, ROS, and angiogenesis pathways were primarily targeted to help maintain testicular somatic cell function and promote germ cell proliferation. The level of proliferation was quantified by calculating the number of Edu+ cells (EdU stains the cells that are in the process of replication) per unit area (in μm^2) in each condition and using the ratio of this parameter in the test condition to a previously identified best condition to quantify the effect of the tested condition.

[3] = tested on: testicular germ cell proliferation; test: Screen of SSC / differentiating spermatogonia receptor ligands in the iterative culture process; type: cell-based, human; settings: ligand at the concentration listed in Table 5; effective to date at improving germ cell proliferation
From the text: A process for identification and selection of receptor ligands capable of improving testicular germ cell proliferation was developed. The process uses expression data obtained by mining scRNA-seq data obtained from testicular tissue (FIG. 27). The process systematically prioritizes candidates for spermatogonia ligands through a series of bioinformatics analyses and filtering. The process comprises identifying and selecting potential ligands based on their receptor expression in State 1 SSCs (active stem cells) and State 2/3 differentiating spermatogonia (differentiated germ cells with strong proliferation ability), or any combination thereof.
More specifically, the approach was based on the single-cell RNA sequencing transcriptome profile of the adult human testis atlas (Guo, J., Grow, E. J., Mlcochova, H., Maher, G. J., Lindskog, C., Nie, X., Guo, Y., Takei, Y., Yun, J., Cai, L., et al. (2018). The adult human testis transcriptional cell atlas. Cell Research 28, 1141. 10.1038/s41422-018-0099-2; the disclosure of all of which is incorporated herein in its entirety), which provides a comprehensive characterization of cell types in the human adult testis. Pseudo-bulk RNA-seq analysis was used, which involves aggregating individual cells into groups to enhance the receptor gene expression signal on SSCs and differentiating spermatogonia. Each individual cell is assigned to its corresponding cell type cluster based and summing the expression values of all cells within each cluster to create pseudo-bulk samples.
The CellTalkDB database was used to identify receptors expressed in SSCs/differentiating spermatogonia. Specifically, the receptors whose expression in SSCs/differentiating spermatogonia ranks within the top 150 were selected, as expression levels below this point are generally low in these cell populations. […] This filtering step helps to focus on receptors that are more specific to the target cell populations. Using the CellTalkDB database, the corresponding ligands for the selected receptors were then identified. The ligand candidates were prioritized based on their expression levels in the testes, and their known functionality.
The identified ligands were then used in the iterative process of the instant disclosure for identifying culture conditions that support testicular germ cell proliferation in vitro to refine the culture conditions.

Row | Molecule | EdU+/area (um2) to condition 2 [2] | Effective [3] | also measured
1 | CS[C@H]1SC[C@H]2C(=O)N(C)[C@@H](C(C)C)C(=O)OC[C@@H](NC(=O)c3cnc4ccccc4n3)C(=O)N[C@@H](C)C(=O)N(C)[C@@H]1C(=O)N(C)[C@@H](C(C)C)C(=O)OC[C@@H](NC(=O)c1cnc3ccccc3n1)C(=O)N[C@@H](C)C(=O)N2C [echinomycin, Echinomycin] | – | – | germ cell survival ([1]; even two weeks after start of culture): helps germ cell survival; maintenance of testicular tissue structure ([1]; inhibitor added to base culture media): helps maintain testicular tissue structure
2 | c1cc(CN2CCCNCCNCCCNCC2)ccc1CN1CCCNCCNCCCNCC1 [Plerixafor] | 1.4 | – | –
3 | O=C(Nc1ccc([N+](=O)[O-])cc1O)Nc1ccccc1Br [SB225002] | 1.7 | – | –
4 | C[C@]12CC[C@H]3[C@@H](CC[C@]4(O)C[C@@H](O)CC[C@]34C=O)[C@@]1(O)CC[C@@H]2C1=CC(=O)OC1 [Strophanthidin] | 2.2 | – | –
5 | C[C@@H]1[C@H](O)[C@@H](C)/C=C/C=C/CC/C=C/C=C/C=C/C=C/C(O[C@H]2O[C@H](C)[C@@H](O)[C@H](N)[C@@H]2O)CC2O[C@](O)(CC(O)C(O)CCC(O)CC(O)CC(O)CC(=O)O[C@H]1C)CC(O)C2C(=O)O (some centres unmarked) [Nystatin] | 2.1 | – | improving germ cell proliferation ([2]; added to first culture condition, FIG. 31 / Table 12): effective at improving germ cell proliferation
6 | CC(C)=CCC[C@](C)(O[C@@H]1O[C@H](CO)[C@@H](O)[C@H](O)[C@H]1O)[C@H]1CC[C@]2(C)[C@@H]1[C@H](O)C[C@@H]1[C@@]3(C)CC[C@H](O)C(C)(C)[C@@H]3[C@@H](O[C@@H]3O[C@H](CO)[C@@H](O)[C@H](O)[C@H]3O[C@@H]3OC[C@@H](O)[C@H](O)[C@H]3O)C[C@]12C [Notoginsenoside R1] | 1.5 | – | –
7 | B1 | – | No | –
8 | B2 | – | Yes | –
9 | B3 | – | Yes | –
